Test results as given in paper PMC5614982, “Impact of Gastric H^+/K^+-ATPase rs2733743 on the Intragastric pH-Values of Dexlansoprazole Injection in Chinese Subjects” (Frontiers in Pharmacology, 2017).

Assay: Pharmacokinetics of dexlansoprazole injection after single intravenous infusion in healthy Chinese subjects
Assay type: in vivo, human
Conditions: for Vd / clearance / half-life: iv
Experimental: Dexlansoprazole injection (30 mg per vial) used in the PK and PD study was manufactured by Nanjing Yoko Pharma Co., Ltd. (Nanjing, China). Subjects received an intravenous infusion of 20 or 30 mg dexlansoprazole injection in sterile saline solution (100 mL/h, 60 min). The study drug was administrated with an infusing pump (SA213, Lifepum, Beijing, China) and given through an intravenous catheter in the antecubital vein opposite to the one from which blood samples were taken.
To determine the pharmacokinetic properties of dexlansoprazole injection in human, a series of venous blood samples (5 mL) were collected in heparinized tubes at 0 (pre-dose), 10, 20, 40, 60, and 75 min, 1.5, 2, 2.5, 3, 4, 6, 9, 12, 16, 24, and 36 h post-dose. Samples were centrifuged immediately at 4°C for 10 min at 3,500 revolutions per minute, then separated and stored at −80°C for PK analysis.
A chiral liquid chromatography-mass spectrometry method was developed and validated for the simultaneous determination of (R)- and (S)-lansoprazole in human plasma, with the calibration curve of 500–3,000 ng/mL for both (R)- and (S)-lansoprazole (Sun et al., [2015]). […] The mass spectrometric analysis was performed using a QTrap 5500 mass spectrometer (AB Sciex, Concord, Ontario, Canada).
The PK parameter of Cmax (maximum concentration) and Tmax (the time to Cmax) were obtained directly from the observed data. Other PK parameters including t1/2 (elimination half-life), AUC^PK (area under the plasma concentration-time curve), Vd (volume of distribution), and CL (clearance) were calculated using non-compartmental methods with Phoenix WinNonlin version 6.4 (Pharsight Inc., CA, USA).

[1] = human, plasma, 20 mg, 20 mg iv, CYP2C19 PM (n = 6)
[2] = human, plasma, 20 mg, 20 mg iv, CYP2C19 hetEM (n = 9)
[3] = human, plasma, 20 mg, 20 mg iv, CYP2C19 homEM (n = 8)
[4] = human, plasma, 20 mg, 20 mg iv, Total (n = 23)
[5] = human, plasma, 30 mg, 30 mg iv, CYP2C19 PM (n = 7)
[6] = human, plasma, 30 mg, 30 mg iv, CYP2C19 hetEM (n = 10)
[7] = human, plasma, 30 mg, 30 mg iv, CYP2C19 homEM (n = 11)
[8] = human, plasma, 30 mg, 30 mg iv, Total (n = 28)
[9] = human, plasma, 20 mg iv, CYP2C19 PM (n = 6)

dose proportionality of Cmax and AUC^PK (20 vs 30 mg iv): exhibit dose proportionality | differences in PK parameters among ABCB1 genotypes (ABCB1 C3435T CC, CT, TT): no statistical significant differences | Vd [1]: 11 L | clearance [1]: 34.7 mL/min | half-life [1]: 3.65 h | Vd [2]: 8.78 ± 1.35 L | clearance [2]: 76.7 mL/min | half-life [2]: 1.37 ± 0.24 h | Vd [3]: 10.4 ± 1.07 L | clearance [3]: 113 mL/min | half-life [3]: 1.18 ± 0.4 h | Vd [4]: 9.62 ± 1.45 L | clearance [4]: 90.2 mL/min | half-life [4]: 1.41 ± 0.64 h | Vd [5]: 9.58 ± 1.56 L | clearance [5]: 40.2 mL/min | half-life [5]: 3.96 ± 1.54 h | Vd [6]: 8.2 ± 1.73 L | clearance [6]: 61.5 mL/min | half-life [6]: 1.56 ± 0.15 h | Vd [7]: 10.7 ± 1.23 L | clearance [7]: 115 mL/min | half-life [7]: 1.14 ± 0.28 h | Vd [8]: 9.78 ± 1.69 L | clearance [8]: 78.2 mL/min | half-life [8]: 2.17 ± 1.57 h | AUC(0-inf) [9]: 9600 ng·h/mL | Cmax [9]: 1670 ng/mL | AUC (human, plasma, 20 mg iv, CYP2C19 PM (n = 6), read-out: AUC0-tCon-t): 9490 ng·h/mL | Tmax (human, plasma, 20 mg iv, CYP2C19 homEM (n = 8)): 1 h | Tmax (human, plasma, 30 mg iv, Total (n = 28)): 1 h | AUC^PK for CYP2C19 PMs relative to CYP2C19 homEMs (same dose group): 3- to 4 fold | t1/2 for CYP2C19 PMs relative to CYP2C19 homEMs (same dose group): 3- to 4 fold
Structure (SMILES): Cc1c(OCC(F)(F)F)ccnc1C[S@@+]([O-])c1nc2ccccc2[nH]1 [dexlansoprazole]
